Data reported in ChEMBL document CHEMBL1649537, “Imcroporin, a new cationic antimicrobial peptide from the venom of the scorpion Isometrus maculates” (2009).
In brackets after ≈: the same amount, converted by molar mass. Activity calls are given as the source filed them. No cut-off for these calls is given here.

Experiments:
[1] = system: Staphylococcus epidermidis; assay: Antimicrobial activity against penicillin-resistant Staphylococcus epidermidis P1389 by microdilution method; type: functional
[2] = system: Staphylococcus epidermidis; assay: Antimicrobial activity against penicillin-sensitive Staphylococcus epidermidis P1111 by microdilution method; type: functional
Staphylococcus aureus [3] = assay: Antimicrobial activity against methicillin-resistant Staphylococcus aureus P1386 by microdilution method; type: functional
Pseudomonas aeruginosa = assay: Antimicrobial activity against Pseudomonas aeruginosa AB92037 by microdilution method; type: functional
Staphylococcus aureus [4] = assay: Antimicrobial activity against methicillin-resistant Staphylococcus aureus P1386 at 200 ug/ml after 9 hrs by time-kill analysis; type: functional, organism-based
Staphylococcus aureus [5] = assay: Antimicrobial activity against Staphylococcus aureus AB94004 by microdilution method; type: functional
Escherichia coli = assay: Antimicrobial activity against Escherichia coli AB94012 by microdilution method; type: functional
Staphylococcus = assay: Antimicrobial activity against methicillin-resistant coagulase-negative Staphylococcus P1369 by microdilution method; type: functional
Bacillus thuringiensis = assay: Antimicrobial activity against Bacillus thuringiensis AB93066 by microdilution method; type: functional
Micrococcus luteus = assay: Antimicrobial activity against Micrococcus luteus AB93113 by microdilution method; type: functional
Bacillus subtilis = assay: Antimicrobial activity against Bacillus subtilis AB91021 by microdilution method; type: functional
Staphylococcus aureus [6] = assay: Antimicrobial activity against methicillin-resistant Staphylococcus aureus P1374 by microdilution method; type: functional
Staphylococcus aureus [7] = assay: Antimicrobial activity against methicillin-resistant Staphylococcus aureus P1386 at 500 ug/ml after 9 hrs by time-kill analysis; type: functional, organism-based

SMILES	MIC [1] [µg/mL]	MIC [2] [µg/mL]	MIC (Staphylococcus aureus [3]) [µg/mL]	MIC (Pseudomonas aeruginosa) [µg/mL]	Activity (Staphylococcus aureus [4])	MIC (Staphylococcus aureus [5]) [µg/mL]	MIC (Escherichia coli) [µg/mL]	MIC (Staphylococcus) [µg/mL]	MIC (Bacillus thuringiensis) [µg/mL]	MIC (Micrococcus luteus) [µg/mL]	MIC (Bacillus subtilis) [µg/mL]	MIC (Staphylococcus aureus [6]) [µg/mL]	Activity (Staphylococcus aureus [7])
CO/N=C(\C(=O)N[C@@H]1C(=O)N2C(C(=O)O)=C(COC(C)=O)CS[C@H]12)c1csc(N)n1 [CEFOTAXIME]	12.5 (≈ 27.4 µM)	8 (≈ 17.6 µM)	400 (≈ 878 µM)	12.5 (≈ 27.4 µM)	inactive	3 (≈ 6.59 µM)	3 (≈ 6.59 µM)	100 (≈ 220 µM)	12.5 (≈ 27.4 µM)	3 (≈ 6.59 µM)	50 (≈ 110 µM)	400 (≈ 878 µM)	
CC1(C)S[C@@H]2[C@H](NC(=O)Cc3ccccc3)C(=O)N2[C@H]1C(=O)O [PENICILLIN G]	1000 (≈ 2990 µM)	4 (≈ 12 µM)	1000 (≈ 2990 µM)			6 (≈ 17.9 µM)		2000 (≈ 5980 µM)	12.5 (≈ 37.4 µM)	25 (≈ 74.8 µM)	50 (≈ 150 µM)	1000 (≈ 2990 µM)	inactive
CN[C@H](CC(C)C)C(=O)N[C@H]1C(=O)N[C@@H](CC(N)=O)C(=O)N[C@H]2C(=O)N[C@H]3C(=O)N[C@H](C(=O)N[C@H](C(=O)O)c4cc(O)cc(O)c4-c4cc3ccc4O)[C@H](O)c3ccc(c(Cl)c3)Oc3cc2cc(c3O[C@@H]2O[C@H](CO)[C@@H](O)[C@H](O)[C@H]2O[C@H]2C[C@](C)(N)[C@H](O)[C@H](C)O2)Oc2ccc(cc2Cl)[C@H]1O [VANCOMYCIN]								4 (≈ 2.76 µM)	3 (≈ 2.07 µM)	3 (≈ 2.07 µM)	3 (≈ 2.07 µM)		
